Reference: article PMC2801607 (Bioorganic & medicinal chemistry letters, 2009)
Like-named read-outs stand apart in the source and are kept apart here.

Columns and labels:
Mtb PtpB [1] = molecular target: Mtb PtpB (Mycobacterium tuberculosis, UniProt I6WXK4); test: biochemical; type: biochemical
Mtb PtpB [2] = test: biochemical; type: biochemical, Mycobacterium tuberculosis
[3] = test system: panel of human tyrosine and dual-specificity phosphatases; type: biochemical
CD45 = molecular target: T1, CD45 (Homo sapiens, UniProt P08575); test: Selectivity panel: CD45 inhibition; type: biochemical
T1 sequence (P08575 26-1306): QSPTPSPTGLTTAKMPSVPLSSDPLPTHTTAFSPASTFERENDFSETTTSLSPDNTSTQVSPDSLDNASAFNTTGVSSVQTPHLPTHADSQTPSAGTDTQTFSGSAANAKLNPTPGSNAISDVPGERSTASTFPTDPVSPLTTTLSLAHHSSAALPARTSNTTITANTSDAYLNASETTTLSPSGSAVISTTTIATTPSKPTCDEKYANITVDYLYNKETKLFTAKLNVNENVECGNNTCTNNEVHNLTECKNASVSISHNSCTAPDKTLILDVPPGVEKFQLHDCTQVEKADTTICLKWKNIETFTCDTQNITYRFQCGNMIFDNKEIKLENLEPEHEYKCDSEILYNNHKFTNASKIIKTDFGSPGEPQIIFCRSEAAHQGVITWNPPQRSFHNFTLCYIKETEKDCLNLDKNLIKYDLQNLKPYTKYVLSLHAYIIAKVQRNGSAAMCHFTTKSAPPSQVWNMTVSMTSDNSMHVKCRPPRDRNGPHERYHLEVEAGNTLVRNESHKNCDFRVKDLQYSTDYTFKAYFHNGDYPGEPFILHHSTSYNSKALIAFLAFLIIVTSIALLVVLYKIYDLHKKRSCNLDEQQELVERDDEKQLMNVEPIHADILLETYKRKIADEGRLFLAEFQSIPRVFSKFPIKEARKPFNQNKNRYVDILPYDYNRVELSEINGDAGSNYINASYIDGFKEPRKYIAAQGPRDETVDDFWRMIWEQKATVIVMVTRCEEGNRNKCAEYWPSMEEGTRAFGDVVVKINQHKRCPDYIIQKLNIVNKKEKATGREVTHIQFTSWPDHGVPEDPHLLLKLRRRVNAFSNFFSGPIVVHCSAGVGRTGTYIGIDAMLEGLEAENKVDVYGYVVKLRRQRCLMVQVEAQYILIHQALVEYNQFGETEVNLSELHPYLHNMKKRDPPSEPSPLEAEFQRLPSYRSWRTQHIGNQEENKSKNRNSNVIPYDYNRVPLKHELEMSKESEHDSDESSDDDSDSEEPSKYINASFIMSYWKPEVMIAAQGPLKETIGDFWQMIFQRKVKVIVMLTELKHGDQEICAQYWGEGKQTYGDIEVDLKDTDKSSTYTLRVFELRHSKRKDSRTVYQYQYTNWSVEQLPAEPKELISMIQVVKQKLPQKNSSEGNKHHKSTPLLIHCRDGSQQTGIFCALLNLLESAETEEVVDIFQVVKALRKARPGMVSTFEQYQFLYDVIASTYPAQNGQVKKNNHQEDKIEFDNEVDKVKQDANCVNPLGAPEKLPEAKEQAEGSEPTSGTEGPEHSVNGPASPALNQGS

LAR = LAR (Homo sapiens, UniProt P10586); test: Selectivity panel: LAR inhibition; type: biochemical
[4] = molecular target: Mycobacterium tuberculosis phosphatase PtpA (Mycobacterium tuberculosis, UniProt P9WIA1); test: PtpA continuous inhibition assay with pNPP substrate; type: biochemical; settings: PtpA dose-response curve, variable slope (GraphPad Prism)
VHR = VHR (Homo sapiens, UniProt P51452); test: Selectivity panel: VHR inhibition; type: biochemical
Tc-Ptp = molecular target: T2, Tc-Ptp (Homo sapiens, UniProt P17706); test: Selectivity panel: Tc-Ptp inhibition; type: biochemical
T2 sequence (P17706 1-415): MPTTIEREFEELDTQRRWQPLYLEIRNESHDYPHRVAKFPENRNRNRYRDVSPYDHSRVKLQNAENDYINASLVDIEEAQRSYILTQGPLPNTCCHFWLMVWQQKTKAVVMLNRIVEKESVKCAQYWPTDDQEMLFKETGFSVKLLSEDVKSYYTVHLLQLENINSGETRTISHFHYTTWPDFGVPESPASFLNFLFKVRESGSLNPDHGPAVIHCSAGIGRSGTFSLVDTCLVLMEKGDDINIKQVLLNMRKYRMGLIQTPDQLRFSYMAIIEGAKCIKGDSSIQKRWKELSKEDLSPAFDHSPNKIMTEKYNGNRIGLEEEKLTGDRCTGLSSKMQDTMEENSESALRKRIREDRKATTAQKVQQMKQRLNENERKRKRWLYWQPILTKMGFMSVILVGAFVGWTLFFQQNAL

PTP1B = molecular target: T3, PTP1B (Homo sapiens, UniProt P18031); test: Selectivity panel: PTP1B inhibition; type: biochemical
T3 sequence (P18031 1-435): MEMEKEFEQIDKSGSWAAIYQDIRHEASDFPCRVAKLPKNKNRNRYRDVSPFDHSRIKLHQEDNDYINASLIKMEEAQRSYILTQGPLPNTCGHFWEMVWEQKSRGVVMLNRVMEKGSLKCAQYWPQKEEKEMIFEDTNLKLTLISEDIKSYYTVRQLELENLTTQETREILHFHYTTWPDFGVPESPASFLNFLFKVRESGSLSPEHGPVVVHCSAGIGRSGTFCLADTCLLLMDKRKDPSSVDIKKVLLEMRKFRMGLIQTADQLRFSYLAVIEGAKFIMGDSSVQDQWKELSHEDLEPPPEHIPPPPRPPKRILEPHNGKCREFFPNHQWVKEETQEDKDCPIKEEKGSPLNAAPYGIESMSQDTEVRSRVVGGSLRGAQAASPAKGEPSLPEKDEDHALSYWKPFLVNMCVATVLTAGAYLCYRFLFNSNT

Chain of Mycobacterium tuberculosis phosphatase PtpA (P9WIA1 whole entry): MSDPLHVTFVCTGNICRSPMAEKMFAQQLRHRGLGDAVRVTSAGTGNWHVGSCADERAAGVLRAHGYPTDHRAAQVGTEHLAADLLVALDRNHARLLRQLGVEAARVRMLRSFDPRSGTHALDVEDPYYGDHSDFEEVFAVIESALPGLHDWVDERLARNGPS
Chain of Mtb PtpB (Mycobacterium tuberculosis, UniProt I6WXK4) (I6WXK4 whole entry, looked up): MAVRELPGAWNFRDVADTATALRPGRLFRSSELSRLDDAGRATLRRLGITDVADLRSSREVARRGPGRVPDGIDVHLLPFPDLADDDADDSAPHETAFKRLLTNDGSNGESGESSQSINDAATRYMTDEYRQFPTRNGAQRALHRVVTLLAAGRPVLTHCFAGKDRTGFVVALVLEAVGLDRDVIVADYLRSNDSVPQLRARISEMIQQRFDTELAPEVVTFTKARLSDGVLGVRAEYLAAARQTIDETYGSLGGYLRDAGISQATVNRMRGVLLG
Chain of LAR (P10586 30-1907): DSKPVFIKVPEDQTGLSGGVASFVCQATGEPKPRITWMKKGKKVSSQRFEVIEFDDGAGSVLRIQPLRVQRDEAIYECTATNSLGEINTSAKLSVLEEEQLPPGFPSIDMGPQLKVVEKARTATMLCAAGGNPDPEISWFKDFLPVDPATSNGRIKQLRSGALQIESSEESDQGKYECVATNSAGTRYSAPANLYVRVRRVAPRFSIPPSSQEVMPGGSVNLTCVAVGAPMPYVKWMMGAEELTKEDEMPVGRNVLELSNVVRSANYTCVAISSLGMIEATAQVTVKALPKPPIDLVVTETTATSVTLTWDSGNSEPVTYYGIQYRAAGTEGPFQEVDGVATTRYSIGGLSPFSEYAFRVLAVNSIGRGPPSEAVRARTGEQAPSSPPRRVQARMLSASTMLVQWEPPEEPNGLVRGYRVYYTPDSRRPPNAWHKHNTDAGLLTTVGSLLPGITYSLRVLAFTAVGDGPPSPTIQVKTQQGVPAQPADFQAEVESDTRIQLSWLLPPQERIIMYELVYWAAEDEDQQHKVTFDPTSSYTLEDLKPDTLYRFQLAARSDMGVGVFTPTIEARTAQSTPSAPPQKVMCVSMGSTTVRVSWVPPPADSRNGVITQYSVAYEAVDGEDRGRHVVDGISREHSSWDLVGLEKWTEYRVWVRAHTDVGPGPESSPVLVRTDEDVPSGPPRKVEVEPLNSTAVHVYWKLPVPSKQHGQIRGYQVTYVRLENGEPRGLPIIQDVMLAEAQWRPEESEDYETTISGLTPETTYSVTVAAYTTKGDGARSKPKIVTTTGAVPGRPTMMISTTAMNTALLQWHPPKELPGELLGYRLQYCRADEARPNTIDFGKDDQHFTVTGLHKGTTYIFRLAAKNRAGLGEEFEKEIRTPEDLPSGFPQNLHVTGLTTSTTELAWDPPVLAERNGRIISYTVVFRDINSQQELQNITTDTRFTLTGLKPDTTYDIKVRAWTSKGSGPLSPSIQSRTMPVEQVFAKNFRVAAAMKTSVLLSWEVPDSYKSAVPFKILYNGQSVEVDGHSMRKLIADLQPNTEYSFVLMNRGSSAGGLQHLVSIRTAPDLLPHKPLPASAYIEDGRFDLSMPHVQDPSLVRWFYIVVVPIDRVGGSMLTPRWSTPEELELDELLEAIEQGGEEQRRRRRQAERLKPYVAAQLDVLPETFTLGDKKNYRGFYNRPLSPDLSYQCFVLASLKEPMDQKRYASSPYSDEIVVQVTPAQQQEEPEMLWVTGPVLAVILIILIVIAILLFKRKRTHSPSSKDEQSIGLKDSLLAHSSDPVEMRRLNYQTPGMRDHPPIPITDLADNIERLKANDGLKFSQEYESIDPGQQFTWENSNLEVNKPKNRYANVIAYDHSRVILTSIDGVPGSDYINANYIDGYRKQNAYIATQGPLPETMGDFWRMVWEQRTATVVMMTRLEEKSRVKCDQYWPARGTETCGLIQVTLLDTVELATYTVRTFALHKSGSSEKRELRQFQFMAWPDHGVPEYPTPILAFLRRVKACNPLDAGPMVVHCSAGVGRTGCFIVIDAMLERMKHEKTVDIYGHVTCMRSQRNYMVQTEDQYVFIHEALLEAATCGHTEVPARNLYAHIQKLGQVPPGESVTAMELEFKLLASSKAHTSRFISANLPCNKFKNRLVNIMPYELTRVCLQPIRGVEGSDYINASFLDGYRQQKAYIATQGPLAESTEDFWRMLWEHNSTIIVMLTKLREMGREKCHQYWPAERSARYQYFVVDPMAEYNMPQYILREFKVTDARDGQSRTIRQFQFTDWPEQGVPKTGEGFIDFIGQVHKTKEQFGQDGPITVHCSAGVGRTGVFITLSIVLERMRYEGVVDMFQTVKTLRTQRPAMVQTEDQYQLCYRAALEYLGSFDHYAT
Chain of VHR (P51452 whole entry): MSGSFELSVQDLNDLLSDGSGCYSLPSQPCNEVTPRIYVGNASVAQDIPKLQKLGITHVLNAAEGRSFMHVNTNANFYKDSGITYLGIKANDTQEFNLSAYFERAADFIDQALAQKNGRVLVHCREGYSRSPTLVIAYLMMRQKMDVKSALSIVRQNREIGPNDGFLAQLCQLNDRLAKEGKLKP

| SMILES | Ki (Mtb PtpB [1]) [µM] | Ki (Mtb PtpB [1]; PtpB) | Selectivity (Mtb PtpB [2]) | Selectivity for PtpA versus panel of phosphatases [3] [fold] | Selectivity (CD45) | Selectivity (LAR) | Hill coefficient h [4] | Selectivity (VHR) | Selectivity (Tc-Ptp) | Selectivity (PTP1B) |
| --- | --- | --- | --- | --- | --- | --- | --- | --- | --- | --- |
| O=C(Nc1cc(C(F)(F)F)c(Br)c(C(F)(F)F)c1)c1ccc(C(F)(F)P(=O)(O)O)cc1 [Compound 38] | > 100 | did not inhibit | >70 | > 70 | >70 | >70 | −1.0 ± 0.1 | >70 | >70 | >70 |
| O=C(Nc1ccc(C(F)(F)P(=O)(O)O)cc1)Nc1cc(C(F)(F)F)cc(C(F)(F)F)c1 [Compound 43] | – | – | – | – | – | – | −1.1 ± 0.2 | – | – | – |
